The record followed here is ChEMBL document CHEMBL4831541, “Antibiotic Conjugates with an Artificial MECAM-Based Siderophore Are Potent Agents against Gram-Positive and Gram-Negative Bacterial Pathogens” (2021).

The structures appear in SMILES notation. Converted amounts (≈) assume the structure as drawn. The source made the active and inactive calls. The calls are words filed in the database; no cut-off is given here.

For orientation: MIC means the lowest concentration found to suppress growth.

In assay [1] the test system is Pseudomonas aeruginosa. In words: Antibacterial activity against Pseudomonas aeruginosa DSM24068 assessed as growth inhibition by measuring minimal concentration at OD600 by visual inspection with iron-limited media incubated for 24 hrs. It is filed as functional, organism-based.
Assay [2] has as its system Escherichia coli. The assay can be described thus: Antibacterial activity against Escherichia coli delta fepA delta cirA delta fiu assessed as growth inhibition by measuring minimal concentration at OD600 by visual inspection with iron-limited media incubated for 24 hrs. The format is functional.
The subject of assay [3] is Acinetobacter baumannii. The assay can be described thus: Antibacterial activity against Acinetobacter baumannii DSM30007 assessed as growth inhibition by measuring minimal concentration at OD600 by visual inspection with iron-limited media incubated for 24 hrs. The format is functional.
In assay [4] the test system is Escherichia coli. In words: Antibacterial activity against Escherichia coli K-12 BW25113 delta exbB assessed as growth inhibition by measuring minimal concentration at OD600 by visual inspection measured after reintroduction of plasmid expressing full length exbB with iron-limited media incubated for 24 hrs. The format is functional.
Assay [5] deals with Escherichia coli. In words: Antibacterial activity against Escherichia coli delta tonB assessed as growth inhibition by measuring minimal concentration at OD600 by visual inspection with iron-limited media incubated for 24 hrs. The format is functional.
In assay [6] the test system is Escherichia coli. In words: Antibacterial activity against Escherichia coli K-12 BW25113 delta cyoB assessed as growth inhibition by measuring minimal concentration at OD600 measured after reintroduction of plasmid expressing cyoB G269D mutant by visual inspection with iron-limited media incubated for 24 hrs. The format is functional.
Assay [7] concerns Escherichia coli. In words: Antibacterial activity against wild type Escherichia coli BW25113 assessed as growth inhibition by measuring minimal concentration at OD600 by visual inspection with iron-limited media incubated for 24 hrs. The format is functional.
Assay [8] relates to Klebsiella pneumoniae. The assay can be described thus: Antibacterial activity against Klebsiella pneumoniae DSM11678 assessed as growth inhibition by measuring minimal concentration at OD600 by visual inspection with iron-limited media incubated for 24 hrs. It is filed as functional, organism-based.
Assay [9] concerns Escherichia coli. The assay can be described thus: Antibacterial activity against Escherichia coli delta exbB assessed as growth inhibition by measuring minimal concentration at OD600 by visual inspection with iron-limited media incubated for 24 hrs. The format is functional.
Assay [10] deals with Escherichia coli. In words: Antibacterial activity against Escherichia coli BW25113 assessed as growth inhibition by measuring minimal concentration at OD600 by visual inspection with iron-limited media incubated for 24 hrs. The format is functional.
Assay [11] concerns Escherichia coli. The assay can be described thus: Antibacterial activity against Escherichia coli delta fepD assessed as growth inhibition by measuring minimal concentration at OD600 by visual inspection with iron-limited media incubated for 24 hrs. It is filed as functional.
The test system of assay [12] is Escherichia coli. The assay can be described thus: Antibacterial activity against Escherichia coli delta […] delta fiu assessed as growth inhibition by measuring minimal concentration at OD600 by visual inspection with iron-limited media incubated for 24 hrs. The format is functional.
The test system of assay [13] is Escherichia coli. The assay can be described thus: Antibacterial activity against Escherichia coli delta fepA assessed as growth inhibition by measuring minimal concentration at OD600 by visual inspection with iron-limited media incubated for 24 hrs. The format is functional.
Assay [14] has as its system Escherichia coli. In words: Antibacterial activity against Escherichia coli delta fepA delta cirA assessed as growth inhibition by measuring minimal concentration at OD600 by visual inspection with iron-limited media incubated for 24 hrs. The format is functional.
The subject of assay [15] is Enterococcus faecium. The assay can be described thus: Antibacterial activity against Enterococcus faecium DSM20477 assessed as growth inhibition by measuring minimal concentration at OD600 by visual inspection with iron-limited media incubated for 24 hrs. The format is functional.
In assay [16] the test system is Escherichia coli. In words: Antibacterial activity against Escherichia coli K-12 BW25113 delta cyoB assessed as growth inhibition by measuring minimal concentration at OD600 by visual inspection with iron-limited media incubated for 24 hrs. It is filed as functional.
For assay [17], the system named is Escherichia coli. In words: Antibacterial activity against Escherichia coli K-12 BW25113 assessed as growth inhibition after 21 serial passages by measuring minimal concentration at OD600 by visual inspection with iron-limited media incubated for 24 hrs. The format is functional.
In assay [18] the test system is Escherichia coli. The assay can be described thus: Antibacterial activity against Escherichia coli delta fiu assessed as growth inhibition by measuring minimal concentration at OD600 by visual inspection with iron-limited media incubated for 24 hrs. It is filed as functional.
In assay [19] the test system is Escherichia coli. The assay can be described thus: Antibacterial activity against Escherichia coli delta cirA assessed as growth inhibition by measuring minimal concentration at OD600 by visual inspection with iron-limited media incubated for 24 hrs. It is filed as functional.
Assay [20] relates to Escherichia coli. In words: Antibacterial activity against Escherichia coli delta fepB assessed as growth inhibition by measuring minimal concentration at OD600 by visual inspection with iron-limited media incubated for 24 hrs. It is filed as functional.
For assay [21], the system named is Staphylococcus aureus. In words: Antibacterial activity against Staphylococcus aureus DSM11822 assessed as growth inhibition by measuring minimal concentration at OD600 by visual inspection with iron-limited media incubated for 24 hrs. The format is functional.
Assay [22] deals with Escherichia coli. The assay can be described thus: Antibacterial activity against Escherichia coli delta cirA delta fiu assessed as growth inhibition by measuring minimal concentration at OD600 by visual inspection with iron-limited media incubated for 24 hrs. It is filed as functional.
Assay [23] relates to Escherichia coli. The assay can be described thus: Antibacterial activity against Escherichia coli K-12 BW25113 delta exbB assessed as growth inhibition by measuring minimal concentration at OD600 by visual inspection measured after reintroduction of plasmid expressing exbB Q163 mutant with iron-limited media incubated for 24 hrs. The format is functional.

Take `CC(=O)Oc1cccc(C(=O)NCc2cc(CNC(=O)c3cccc(OC(C)=O)c3OC(C)=O)c(NC(=O)CCCc3cn(CCC(=O)N[C@@H](C(=O)N[C@@H]4C(=O)N5[C@@H]4SC(C)(C)[C@@H]5C(=O)O)c4ccccc4)nn3)c(CNC(=O)c3cccc(OC(C)=O)c3OC(C)=O)c2)c1OC(C)=O`: the outcome in [1], in [7] and in [8] was inactive. Besides, the minimum inhibitory concentration (MIC) is > 12 µM in assay [2]; ≤ 0.09 µM in [3]; 2.9 µM (≈ 4.01 µg/mL) in assay [4]; > 12 µM in [5]; 2.9 µM (≈ 4.01 µg/mL) in assay [6]; > 12 µM in [9]. Also, the MIC in [10] is ≤ 0.09 µM; in assay [11], 1.5 µM (≈ 2.07 µg/mL); in [12] it was 1.5 µM (≈ 2.07 µg/mL); in [13], 2.9 µM (≈ 4.01 µg/mL); in [14], 1.5 µM (≈ 2.07 µg/mL); in assay [15], 0.62 µM (≈ 0.856 µg/mL). Further, the MIC in [16] was 2.9 µM (≈ 4.01 µg/mL); in assay [17], > 12 µM; in assay [18], 1.5 µM (≈ 2.07 µg/mL); in [19], 2.9 µM (≈ 4.01 µg/mL); in [20], 2.9 µM (≈ 4.01 µg/mL); in assay [21], 0.12 µM (≈ 0.166 µg/mL). Besides, the figures for the MIC in assay [22] and in [23] were 2.9 µM (≈ 4.01 µg/mL) and > 12 µM, respectively.
